Reference: patent publication US5994373A, “Substituted azacyclic compounds” (Novo Nordisk A/S Novo Alle DK 2880, priority 1995, dated 1999)
Read-outs that look alike come from different tables or passages of the source.

Legend:
[1] = molecular target: muscarinic acetylcholine receptors; settings: read-out: affinity of site labelled by ^3 H-Oxo, cited from earlier work
[2] = tested on: nicotinic acetylcholine receptors; experiment: inhibition of specific binding of ^3 H-methylcarbamylcholine (^3 H-MCC) in rat brain tissue; settings: rat cortical receptors; for Oxo/MCC Ratio: IC50 ^3 H-Oxo / IC50 ^3 H-MCC; for IC50: ^3 H-MCC 2 nM, 0° C., 60 min
Description: The pharmacological properties of the compounds of the invention can be illustrated by determining their capability to inhibit the specific binding of ^3 H-methylcarbamylcholine (^3 H-MCC) (Abood and Grassi, Biochem. Pharmacol., Vol. 35, pp. 4199-4202, (1986)).
^3 H-MCC labels the nicotinic receptors in the CNS. The inhibitory effect on ^3 H-MCC binding reflects the affinity for nicotinic acetylcholine receptors.
Fresh or frozen rat, brain tissue (hippocampus or cortex) was homogenized in assay buffer (50 mM Tris-HCl, pH 7.4, 120 mM NaCl, 5 mM KCl, 2 mM CaCl2, 1 mM MgCl2) and centrifuged for 10 min. at 40.000×g. Pellets were subsequently reconstituted in assay buffer and an appropriate amount of tissue sample was mixed in tubes with ^3 H-methylcarbamylcholine (NEN, NET-951; final concentration 2 nM) and test drug. The tubes were incubated at 0° C. for 60 min. Unbound ligand was separated from bound ligand by vacuum filtration through GF/B filters presoaked in 0.5 % polyethylenimine. Filters were washed three times with 5 ml wash buffer (50 mM Tris-HCl, pH 7.4) and transferred to vials. 4 ml scintillation fluid was added and the radioactivity was measured by scintillation counting. Unspecific binding was measured with 10 μM nicotine.
The IC50 values of the test compounds were determined by nonlinear regression analyses (GraphPad InPlot).
Table I illustrates the affinity of the compounds of the present invention for nicotinic and muscarinic receptors as determined by ^3 H-MCC and ^3 H-Oxo binding to rat cortical receptors. The compounds, however, show selective affinity for nicotinic receptors as compared to muscarinic receptors, i.e OXO/MCC>1.

[3] = molecular target: muscarinic acetylcholine receptors; experiment: inhibition of specific binding of ^3 H-Oxotremorine-M (^3 H-Oxo) in rat cortex; settings: rat cortical receptors; 1.0 nM radioligand, 25° C., 30 min
Description: Furthermore, the pharmacological properties of the compounds of the invention can also be illustrated by determining their capability to inhibit the specific binding of ^3 H-Oxotremorine-M (^3 H-Oxo). Birdsdall N. J. M., Hulme E. C., and Burgen A. S. V. (1980). "The Character of Muscarinic Receptors in Different Regions of the Rat Brain". Proc. Roy. Soc. London (Series B) 207,1.
^3 H-Oxo labels muscarinic receptor in the CNS (with a preference for agonist domains of the receptors). Three different sites are labelled by ^3 H-Oxo. […] Using the present experimental conditions only the high and medium affinity sites are determined.
The inhibitory effects of compounds on ^3 H-Oxo binding reflects the affinity for muscarinic acetylcholine receptors.
All preparations are performed at 0-4° C. unless otherwise indicated. Fresh cortex (0.1-1 g) from male Wistar rats (150-250 g) is homogenized for 5-10 s in 10 ml 20 mM Hepes pH: 7.4, with an Ultra-Turrax homogenizer. The homogenizer is rinsed with 10 ml of buffer and the combined suspension centrifuged for 15 min. at 40,000×g. The pellet is washed three times with buffer. In each step the pellet is homogenized as before in 2×10 ml of buffer and centrifuged for 10 min. at 40,000×g.
The final pellet is homogenized in 20 mM Hepes pH: 7.4 (100 ml per g of original tissue) and used for binding assay. Aliquots of 0.5 ml is added 25 μl of test solution and 25 μl of ^3 H-Oxotremorine (1.0 nM, final concentration) mixed and incubated for 30 min. at 25° C. Non-specific binding is determined in triplicate using arecoline (1 μg/ml, final concentration) as the test substance. After incubation samples are added 5 ml of ice-cold buffer and poured directly onto Whatman GF/C glass fiber filters under suction and immediately washed 2 times with 5 ml of ice-cold buffer. The amount of radioactivity on the filters are determined by conventional liquid scintillation counting. Specific binding is total binding minus non specific binding.
Test substances are dissolved in 10 ml water (if necessary heated on a steam-bath for less than 5 min.) at a concentration of 2.2 mg/ml. 25-75% inhibition of specific binding must be obtained before calculation of IC50. The test value will be given as IC50 (the concentration (nM) of the test substance which inhibits the specific binding of ^3 H-Oxo by 50%).
IC50 =(applied test substance concentration)×(Cx /Co
where Co is specific binding in control assays and Cx is the specific binding in the test assay. (The calculations assume normal mass-action kinetics).
Table I illustrates the affinity of the compounds of the present invention for nicotinic and muscarinic receptors as determined by ^3 H-MCC and ^3 H-Oxo binding to rat cortical receptors. […]

[4] = tested on: attention and memory; settings: healthy humans; cited from earlier work
[5] = tested on: attention and memory; settings: Alzheimer's disease patients; cited from earlier work
[6] = tested on: substantia nigra; settings: chronic nicotine; lesioning; cited from earlier work
[7] = tested on: Tourette's syndrome; settings: in vivo; cited from earlier work
[8] = tested on: dopamine release; settings: nucleus accumbens compared with striatum; cited from earlier work
[9] = tested on: prefrontal neurons; settings: cited from earlier work
[10] = tested on: dopaminergic effects; settings: various behavioral models; cited from earlier work
[11] = tested on: cognitive function; settings: age related; cited from earlier work

Oxo/MCC Ratio [2] | IC50 [2] [µM] | IC50 [3] [µM] | SMILES | also measured
 |  |  | C[N+](C)(C)CC#CCN1CCCC1=O [^3 H-Oxo, ^3 H-Oxotremorine-M] | Kd ([1]; high affinity site): 0.0018 µM; Kd ([1]; medium affinity site): 0.02 µM; Kd ([1]; third (lowest affinity) site, not determined under present conditions): 3 µM
23 | 0.062 | 1.4 | CCNc1oncc1C1=CCCN(C)C1.O=C(O)C(=O)O [Compound 5, 3-(5-ethylamino-4-isoxazolyl)-1,2,5,6-tetrahydro-1-methylpyridine oxalate] | 
19 | 0.23 | 4.4 | CNc1oncc1C1=CCCN(C)C1.O=C(O)C(=O)O [Compound 3, 3-(5-methylamino-4-isoxazolyl)-1,2,5,6-tetrahydro-1-methylpyridine oxalate] | 
 |  |  | CN1CCCC1c1cccnc1 (centres unmarked) [nicotine] | attention and memory [4]: improved attention and memory in healthy humans; attention and memory [5]: improved attention and memory; protection against cell loss in the substantia nigra [6]: may protect against cell loss in the substantia nigra; effects in Tourette's syndrome [7]: beneficial effects in Tourette's syndrome; stimulation of dopamine release [8]: stimulates dopamine release in the nucleus accumbens more potently than in striatum; reversal of inactivation of prefrontal neurons [9]: nicotinic reversal of inactivation of prefrontal neurons; potentiation of dopaminergic effects [10]: potentiate dopaminergic effects in various behavioral models
47 | 0.085 | 4 | CN1CCC=C(c2cnoc2NCc2ccccc2)C1.O=C(O)C(=O)O [Compound 14, 3-(5-Benzylamino-4-isoxazolyl)-1,2,5,6-tetrahydro-1-methylpyridine oxalate] | 
 |  |  | CNC1(C)C2CCC(C2)C1(C)C (centres unmarked) [mecamylamine] | cognitive impairment [11]: cause cognitive impairment in an age related way
130 | 0.04 | 5.2 | CCCNc1oncc1C1=CCCN(C)C1.O=C(O)C(=O)O [Compound 7, 3-(5-Propylamino-4-isoxazolyl)-1,2,5,6-tetrahydro-1-methylpyridine oxalate] | 
